Assay results taken from patent US8071506B2, “Synergistic herbicidal composition containing florasulam for weed control in turf” (Dow AgroSciences LLC, priority 2009, dated 2011).

Assays:
Test in all cases: Field study of weed control in established turfgrass, percent control from visual weed cover
[1] = system: Buckhorn Plantain (PLALA); type: in vivo, Plantago lanceolata; details: 27 DAT in turf; Pendimethalin GR 2300 g ai/ha, Florasulam GR 15 g ai/ha
Protocol: Field studies were conducted in established turfgrass sites containing a natural population of target broadleaf weeds. Replicated trials, containing a minimum of three replications and having individual plots ranging in size from 25 to 50 ft. sq, were initiated in the early spring with turf and weeds still in dormancy or just beginning active growth. Studies containing two components (florasulam and dithiopyr or pendimethalin) were timed to coincide with typical preemergent crabgrass (Digitaria sp.) timing at the study location. Studies containing three components (florasulam, dithiopyr or pendimethalin, Trimec (2,4-D+dicamba+MCPP-p) or Scotts Plus 2 (2,4-D+MCPP-p) were timed as previous for the florasulam and dithiopyr or pendimethalin components followed by an application of Trimec or Scotts Plus 2 at peak dandelion bloom which occurs approximately six weeks after a typical preemergent application. Granule treatments were uniformly applied to individual plots using a common hand-shaker or shaker table method. Liquid applications were applied with a CO2 backpack sprayer calibrated to deliver 40 to 100 GPA at 40 to 60 PSI. Applications were generally made in the early morning when dew was present. Natural rainfall and supplemental irrigation were used to maintain healthy turf and active weed growth throughout the study period. […]

White Clover (TRFRE) = type: in vivo, Trifolium repens; details: for Observed percent control: Florasulam GR 15 g ai/ha
Protocol: (§1) Field studies were conducted in established turfgrass sites containing a natural population of target broadleaf weeds. Replicated trials, containing a minimum of three replications and having individual plots ranging in size from 25 to 50 ft. sq, were initiated in the early spring with turf and weeds still in dormancy or just beginning active growth. Studies containing two components (florasulam and dithiopyr or pendimethalin) were timed to coincide with typical preemergent crabgrass (Digitaria sp.) timing at the study location. Studies containing three components (florasulam, dithiopyr or pendimethalin, Trimec (2,4-D+dicamba+MCPP-p) or Scotts Plus 2 (2,4-D+MCPP-p) were timed as previous for the florasulam and dithiopyr or pendimethalin components followed by an application of Trimec or Scotts Plus 2 at peak dandelion bloom which occurs approximately six weeks after a typical preemergent application. Granule treatments were uniformly applied to individual plots using a common hand-shaker or shaker table method. Liquid applications were applied with a CO2 backpack sprayer calibrated to deliver 40 to 100 GPA at 40 to 60 PSI. Applications were generally made in the early morning when dew was present. Natural rainfall and supplemental irrigation were used to maintain healthy turf and active weed growth throughout the study period. Weed control evaluations were made by visually assessing percent weed cover of each weed species in each plot at the initiation of the study and at each evaluation interval, converting to percent control using the following formula: (1−(B/A))*100
(§2) A=percent weed cover at study initiation
(§3) B=percent weed at a specific evaluation interval after application
(§4) Using this method, control ranges occur between 0 and 100 percent where 0 corresponds to no control and 100 corresponds to complete kill. Percent cover of each weed species was made at approximately 2, 4 and 8 weeks after treatment.
(§5) The following equation was used to calculate the expected activity of mixtures containing two active ingredients, A and B: Expected=A+B−(A×B/100)
(§6) A=observed efficacy of active component A at the same concentration as used in the mixture.
(§7) B=observed efficacy of active component B at the same concentration as used in the mixture.
(§8) The following equation was used to calculate the expected activity of mixtures containing three active ingredients, A and B and C: Expected=A+B+C−((A×B)+(A×C)+(B×C)/100)+(A×B×C/10,000)
(§9) C=observed efficacy of active component C at the same concentration as used in the mixture.

Dandelion (TAROF) = type: in vivo, Taraxacum officinale
Protocol: as §1, §2, §3, §4, §5, §6, §7, §8, §9

[2] = 55 DAT in turf, Pendimethalin GR 2300 g ai/ha, Scotts Plus 2 125 Lb/A
[3] = 60 DAT in turf, Pendimethalin GR 2300 g ai/ha, Florasulam GR 15 g ai/ha, Scotts Plus 2 125 Lb/A
[4] = 28 DAT in turf, Dithiopyr GR 575 g ai/ha
[5] = 36 DAT in turf, Dithiopyr GR 575 g ai/ha
[6] = 62 DAT in turf, Dithiopyr GR 575 g ai/ha
[7] = 36 DAT in turf, Dithiopyr GR 575 g ai/ha, Florasulam GR 15 g ai/ha
[8] = 56 DAT in turf, Dithiopyr GR 575 g ai/ha, Florasulam GR 15 g ai/ha
[9] = 57 DAT in turf, Dithiopyr GR 575 g ai/ha, Florasulam GR 15 g ai/ha, Trimec EC 4 Pt/A
[10] = 58 DAT in turf, Dithiopyr 2EW 575 g ai/ha, Florasulam SC 15 g ai/ha
[11] = 59 DAT in turf, Dithiopyr GR 575 g ai/ha, Florasulam GR 15 g ai/ha, Trimec EC 4 Pt/A
[12] = 64 DAT in turf, Dithiopyr GR 575 g ai/ha, Florasulam GR 15 g ai/ha, Trimec EC 4 Pt/A
[13] = 91 DAT in turf, Dithiopyr GR 575 g ai/ha, Florasulam GR 15 g ai/ha
[14] = applications made at the preemergent herbicide application timing

Row | Compound | Observed percent control [1] [%] | Observed percent control (White Clover (TRFRE); [2]) [%] | Observed percent control (Dandelion (TAROF); [3]) [%] | Observed percent control (White Clover (TRFRE); [4]) [%] | Observed percent control (White Clover (TRFRE); [5]) [%] | Observed percent control (White Clover (TRFRE); [6]) [%] | Observed percent control (Dandelion (TAROF); [7]) [%] | Observed percent control (Dandelion (TAROF); [8]) [%] | Observed percent control (Dandelion (TAROF); [9]) [%] | Observed percent control (Dandelion (TAROF); [10]) [%] | Observed percent control (Dandelion (TAROF); [11]) [%] | Observed percent control (Dandelion (TAROF); [12]) [%] | Observed percent control (Dandelion (TAROF); [13]) [%] | Control of white clover, in words (White Clover (TRFRE); [14]) | Control of dandelion, in words (Dandelion (TAROF); [14])
1 | CCC(CC)Nc1c([N+](=O)[O-])cc(C)c(C)c1[N+](=O)[O-] [Pendimethalin, N-(1-ethylpropyl)-3,4-dimethyl-2,6-dinitrobenzenamine] | 0 | 0 | 21 |  |  |  |  |  |  |  |  |  |  |  | 
2 | CSC(=O)c1c(C(F)F)nc(C(F)(F)F)c(C(=O)SC)c1CC(C)C [Dithiopyr, S,S′-dimethyl 2-(difluoromethyl)-4-(2-methylpropyl)-6-(trifluoromethyl)-3,5-pyridinedicarbothioate] |  |  |  | 0 | 0 | 0 | 0 | 29 | 21 | 21.7 | 27 | 0 | 19 |  | 
3 | COc1ncc(F)c2nc(S(=O)(=O)Nc3c(F)cccc3F)nn12 [Florasulam, N-(2,6-difluorophenyl)-8-fluoro-5-methoxyl[1,2,4]triazolo[1,5-c]pyrimidine-2-sulfonamide] | 26.7 | 62.5 | 20.6 | 86.8 | 73 | 0 | 20 | 0 | 31 | 70 | 0 | 30 | 18 | effectively controls | effectively controls
